Results from US5158770A, “Aqueous solution containing ginkgo leaf extract” (Freund Industrial Co., Ltd., priority 1989, dated 1992).
In brackets after ≈: the same amount, converted by molar mass. Counter-ions that a name gives are not always drawn.

Tests used:
[1] = Solubility Test-1: dissolution of ginkgo leaf extract dry powder in aqueous solution of the compound; type: physicochemical; design: key: .largecircle.: dissolved to form a transparent aqueous solution; X: insoluble; settings: 5 g compound in 100 ml water at 20° C., 10 g ginkgo leaf extract, shaken 10 minutes
Method: To each aqueous solution was added 10 g of dry powder of the ginkgo leaf extract and shaken for 10 minutes to observe the dissolution state.

[2] = physchem; settings: water
[3] = Solubility of the organic/inorganic compound in water

Row | SMILES | Dissolution state [1] | solubility [2] [mg/mL] | solubility [3] [mg/mL]
1 | CC(C)(CO)[C@@H](O)C(=O)NCCC(=O)O [Calcium pantothenate] | .largecircle. |  | 
2 | N#CN=C(N)N [Dicyandiamide] | X | 32 (≈ 381 mM) | 
3 | OCC(O)CO [Glycerin] | X |  | 
4 | Cl.N[C@@H](Cc1c[nH]cn1)C(=O)O [Histidine hydrochloride] |  |  | 420
5 | CC[C@H](C)[C@H](N)C(=O)O [Isoleucine] |  | 38 (≈ 290 mM) | 
6 | CCCCCCCCCCCC[N+](C)(C)C.[Cl-] [Lauryltrimethylammonium chloride, Lauryltrimethyl-ammonium chloride] | .largecircle. | 760 | 
7 | CSCC[C@H](N)C(=O)O [Methionine] | X |  | 33 (≈ 221 mM)
8 | NC(=O)c1cccnc1 [Nicotinic acid amide] | .largecircle. |  | 500 (≈ 4090 mM)
9 | O=C(O)c1cccnc1 [Nicotinic acid] | X |  | 16 (≈ 130 mM)
10 | Cc1ncc(CO)c(CO)c1O.Cl [Pyridoxine hydrochloride] | .largecircle. | 190 | 
11 | Oc1cccc(O)c1O [Pyrogallol] |  | 625 (≈ 4960 mM) | 
12 | Cc1cc2nc3c(=O)[nH]c(=O)nc-3n(C[C@H](O)[C@H](O)[C@H](O)CO)c2cc1C [Riboflavin] | X |  | 0.1 (≈ 0.266 mM)
13 | OC[C@@H](O)[C@@H](O)[C@H](O)[C@@H](O)CO [Sorbitol] | X |  | 720 (≈ 3950 mM)
14 | OC[C@H]1O[C@@](CO)(O[C@H]2O[C@H](CO)[C@@H](O)[C@H](O)[C@H]2O)[C@@H](O)[C@@H]1O [Sucrose] | X | 664 (≈ 1940 mM) | 
15 | NCCS(=O)(=O)O [Taurine] |  | 90 (≈ 719 mM) | 
16 | Cc1ncc(C[n+]2csc(CCO)c2C)c(N)n1 [Thiamine hydrochloride] | .largecircle. |  | 1000
17 | C[C@@H](O)[C@H](N)C(=O)O [Threonine] | .largecircle. |  | 
18 | NC(N)=O [Urea] | .largecircle. |  | 
19 | CC(C)[C@H](N)C(=O)O [Valine] |  | 85 (≈ 726 mM) | 
